Data reported in ChEMBL document CHEMBL4371034, “Design, synthesis, biological evaluation, structure-activity relationship, and toxicity of clinafloxacin-azole conjugates as novel antitubercular agents” (Bioorg Med Chem, 2019).
≈ marks a conversion by molar mass, not a printed value. Calls of active or inactive are those of the source. The calls are words filed in the database; no cut-off is given here.

Columns and labels:
[1] = biological target: Voltage-gated inwardly rectifying potassium channel KCNH2 (Homo sapiens, UniProt Q12809); assay: Inhibition of human ERG
Salmonella [2] = assay: Antibacterial activity against Salmonella S1.1152 measured after 120 days of sample dissolution by serial dilution method; type: functional
[3] = system: Mycobacterium tuberculosis; assay: Antitubercular activity against Mycobacterium tuberculosis H37Rv assessed as growth inhibition at 20 uM after 6 days by […]; type: functional; conditions: 144 h, read-out: GI
Pseudomonas aeruginosa [4] = assay: Antibacterial activity against Pseudomonas aeruginosa PS1.0050 assessed as diameter of zone of inhibition at 80 ug/ml after 18 hrs by agar diffusion method; type: functional; conditions: for zone of inhibition at 80 µg/mL: PS1.0050, 18 h, read-out: DIZ
Salmonella [5] = assay: Antibacterial activity against Salmonella S1.1152 assessed as diameter of zone of inhibition at 80 ug/ml after 18 hrs by agar diffusion method; type: functional; conditions: for zone of inhibition at 80 µg/mL: S1.1152, 18 h, read-out: DIZ
Escherichia coli [6] = assay: Antibacterial activity against duck Escherichia coli clinical isolates measured after 120 days of sample dissolution by serial dilution method; type: functional
[7] = system: Mycobacterium tuberculosis; assay: Antitubercular activity against Mycobacterium tuberculosis H37Rv after 6 days by […]; type: functional; conditions: 144 h
Staphylococcus aureus [8] = assay: Antibacterial activity against Staphylococcus aureus ATCC 29213 measured after 120 days of sample dissolution by serial dilution method; type: functional
Staphylococcus aureus [9] = assay: Antibacterial activity against Staphylococcus aureus ATCC 29213 assessed as diameter of zone of inhibition at 80 ug/ml after 18 hrs by agar diffusion method; type: functional; conditions: for zone of inhibition at 80 µg/mL: ATCC 29213, 18 h, read-out: DIZ
[10] = Cytotoxicity against human HeLa cells assessed as growth inhibition at 20 uM by Celltiter-Glo luminescence assay; type: cell-based; conditions: read-out: GI
Pseudomonas aeruginosa [11] = assay: Antibacterial activity against Pseudomonas aeruginosa PS1.0050 measured after 120 days of sample dissolution by serial dilution method; type: functional
Escherichia coli [12] = assay: Antibacterial activity against duck Escherichia coli clinical isolates assessed as diameter of zone of inhibition at 80 ug/ml after 18 hrs by agar diffusion method; type: functional; conditions: for zone of inhibition at 80 µg/mL: read-out: DIZ
HeLa = assay: Cytotoxicity against human HeLa cells by Celltiter-Glo luminescence assay; type: cell-based

Sequence of Voltage-gated inwardly rectifying potassium channel KCNH2 (Q12809 whole entry): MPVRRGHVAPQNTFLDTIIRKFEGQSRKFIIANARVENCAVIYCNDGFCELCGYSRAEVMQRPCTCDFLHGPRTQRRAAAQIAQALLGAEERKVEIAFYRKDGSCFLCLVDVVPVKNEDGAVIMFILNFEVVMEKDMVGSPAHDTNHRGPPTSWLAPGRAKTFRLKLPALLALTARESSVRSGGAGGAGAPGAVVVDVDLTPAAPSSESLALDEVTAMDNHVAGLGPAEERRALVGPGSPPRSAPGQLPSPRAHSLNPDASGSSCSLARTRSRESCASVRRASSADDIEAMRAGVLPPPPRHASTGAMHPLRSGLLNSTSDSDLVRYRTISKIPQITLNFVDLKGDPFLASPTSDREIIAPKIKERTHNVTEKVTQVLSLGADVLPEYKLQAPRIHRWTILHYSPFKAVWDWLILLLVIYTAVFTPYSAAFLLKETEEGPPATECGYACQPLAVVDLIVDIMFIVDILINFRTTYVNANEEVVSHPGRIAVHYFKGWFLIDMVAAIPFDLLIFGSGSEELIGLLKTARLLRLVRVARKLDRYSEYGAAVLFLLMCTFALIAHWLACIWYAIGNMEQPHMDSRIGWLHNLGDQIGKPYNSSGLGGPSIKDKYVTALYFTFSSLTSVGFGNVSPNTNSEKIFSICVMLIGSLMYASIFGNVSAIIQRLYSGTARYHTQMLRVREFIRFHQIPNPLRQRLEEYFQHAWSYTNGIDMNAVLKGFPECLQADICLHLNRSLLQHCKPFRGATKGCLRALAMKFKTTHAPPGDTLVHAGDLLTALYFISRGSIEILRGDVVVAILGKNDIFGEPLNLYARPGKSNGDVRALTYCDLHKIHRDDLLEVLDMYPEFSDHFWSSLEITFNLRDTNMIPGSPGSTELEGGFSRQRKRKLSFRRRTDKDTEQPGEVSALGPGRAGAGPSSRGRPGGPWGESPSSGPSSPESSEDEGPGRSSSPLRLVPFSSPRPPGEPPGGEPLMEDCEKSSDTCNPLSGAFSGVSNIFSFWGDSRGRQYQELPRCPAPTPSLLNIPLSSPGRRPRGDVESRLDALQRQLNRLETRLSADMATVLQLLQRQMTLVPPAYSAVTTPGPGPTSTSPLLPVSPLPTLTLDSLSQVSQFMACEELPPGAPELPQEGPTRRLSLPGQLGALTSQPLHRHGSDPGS

O=C(Cn1cnnn1)NC1CCN(c2c(F)cc3c(=O)c(C(=O)O)cn(C4CC4)c3c2Cl)C1 (centres undefined)
IC50 [1]: > 1 µM

Cc1nccn1CCC(=O)NC1CCN(c2c(F)cc3c(=O)c(C(=O)O)cn(C4CC4)c3c2Cl)C1 (centres undefined)
IC50 [1]: > 1 µM

O=C(Cn1nccn1)NC1CCN(c2c(F)cc3c(=O)c(C(=O)O)cn(C4CC4)c3c2Cl)C1 (centres undefined)
IC50 [1]: > 1 µM

O=C(CCn1ccnc1)NC1CCN(c2c(F)cc3c(=O)c(C(=O)O)cn(C4CC4)c3c2Cl)C1 (centres undefined)
IC50 [1]: > 1 µM

O=C(CSc1nc2ccccc2[nH]1)NC1CCN(c2c(F)cc3c(=O)c(C(=O)O)cn(C4CC4)c3c2Cl)C1 (centres undefined)
IC50 [1]: > 1 µM

Nc1ccn(CC(=O)NC2CCN(c3c(F)cc4c(=O)c(C(=O)O)cn(C5CC5)c4c3Cl)C2)n1 (centres undefined)
MIC (Salmonella [2]): 16 µg/mL (≈ 32.7 µM)
inhibition of growth at 20 µM [3]: 98.5%
zone of inhibition at 80 µg/mL (Pseudomonas aeruginosa [4]): 25 mm
zone of inhibition at 80 µg/mL (Salmonella [5]): 23 mm
MIC (Escherichia coli [6]): > 16 µg/mL
MIC [7]: 1.69 µM (≈ 0.826 µg/mL)
MIC (Staphylococcus aureus [8]): 16 µg/mL (≈ 32.7 µM)
zone of inhibition at 80 µg/mL (Staphylococcus aureus [9]): 23 mm
inhibition at 20 µM [10]: -17.1%
MIC (Pseudomonas aeruginosa [11]): 2 µg/mL (≈ 4.09 µM)
zone of inhibition at 80 µg/mL (Escherichia coli [12]): 23 mm
IC50 [1]: > 1 µM

O=C(CCn1cnc2ccccc21)NC1CCN(c2c(F)cc3c(=O)c(C(=O)O)cn(C4CC4)c3c2Cl)C1 (centres undefined)
IC50 [1]: > 1 µM

Nc1nnn(CC(=O)NC2CCN(c3c(F)cc4c(=O)c(C(=O)O)cn(C5CC5)c4c3Cl)C2)n1 (centres undefined)
IC50 [1]: > 1 µM

O=C(CCn1cncn1)NC1CCN(c2c(F)cc3c(=O)c(C(=O)O)cn(C4CC4)c3c2Cl)C1 (centres undefined)
IC50 [1]: > 1 µM

O=C(Cn1ccnc1)NC1CCN(c2c(F)cc3c(=O)c(C(=O)O)cn(C4CC4)c3c2Cl)C1 (centres undefined)
IC50 [1]: > 1 µM

O=C(Cn1ncnn1)NC1CCN(c2c(F)cc3c(=O)c(C(=O)O)cn(C4CC4)c3c2Cl)C1 (centres undefined)
IC50 [1]: > 1 µM

Cc1nnnn1CC(=O)NC1CCN(c2c(F)cc3c(=O)c(C(=O)O)cn(C4CC4)c3c2Cl)C1 (centres undefined)
IC50 [1]: > 1 µM

Nc1nnn(CCC(=O)NC2CCN(c3c(F)cc4c(=O)c(C(=O)O)cn(C5CC5)c4c3Cl)C2)n1 (centres undefined)
IC50 [1]: > 1 µM

Cc1cn(CCC(=O)NC2CCN(c3c(F)cc4c(=O)c(C(=O)O)cn(C5CC5)c4c3Cl)C2)cn1 (centres undefined)
IC50 [1]: > 1 µM

O=C(CCn1cccn1)NC1CCN(c2c(F)cc3c(=O)c(C(=O)O)cn(C4CC4)c3c2Cl)C1 (centres undefined)
IC50 [1]: > 1 µM

O=C(Cn1nnc2ccccc21)NC1CCN(c2c(F)cc3c(=O)c(C(=O)O)cn(C4CC4)c3c2Cl)C1 (centres undefined)
IC50 [1]: > 1 µM

Cc1nnn(CC(=O)NC2CCN(c3c(F)cc4c(=O)c(C(=O)O)cn(C5CC5)c4c3Cl)C2)n1 (centres undefined)
IC50 [1]: > 1 µM

O=C(Cn1cccn1)NC1CCN(c2c(F)cc3c(=O)c(C(=O)O)cn(C4CC4)c3c2Cl)C1 (centres undefined)
IC50 [1]: > 1 µM

O=C(CCn1ccnn1)NC1CCN(c2c(F)cc3c(=O)c(C(=O)O)cn(C4CC4)c3c2Cl)C1 (centres undefined)
inhibition of growth at 20 µM [3]: 96.9%
zone of inhibition at 80 µg/mL (Pseudomonas aeruginosa [4]): 14 mm
diameter of the inhibition zone (DIZ) (Salmonella [5]): inactive
IC50 (HeLa): > 20 µM
MIC [7]: 2.95 µM (≈ 1.44 µg/mL)
zone of inhibition at 80 µg/mL (Staphylococcus aureus [9]): 7 mm
inhibition at 20 µM [10]: -9.5%
diameter of the inhibition zone (DIZ) (Escherichia coli [12]): inactive
IC50 [1]: > 1 µM

Cc1nnn(CCC(=O)NC2CCN(c3c(F)cc4c(=O)c(C(=O)O)cn(C5CC5)c4c3Cl)C2)n1 (centres undefined)
IC50 [1]: > 1 µM

Nc1nnc(SCCC(=O)NC2CCN(c3c(F)cc4c(=O)c(C(=O)O)cn(C5CC5)c4c3Cl)C2)s1 (centres undefined)
inhibition of growth at 20 µM [3]: 95.8%
diameter of the inhibition zone (DIZ) (Pseudomonas aeruginosa [4]): inactive
diameter of the inhibition zone (DIZ) (Salmonella [5]): inactive
IC50 (HeLa): > 20 µM
MIC [7]: 3.9 µM (≈ 2.16 µg/mL)
diameter of the inhibition zone (DIZ) (Staphylococcus aureus [9]): inactive
inhibition at 20 µM [10]: -21.2%
diameter of the inhibition zone (DIZ) (Escherichia coli [12]): inactive
IC50 [1]: > 1 µM

Cc1nccn1CC(=O)NC1CCN(c2c(F)cc3c(=O)c(C(=O)O)cn(C4CC4)c3c2Cl)C1 (centres undefined)
IC50 [1]: > 1 µM

NC1CCN(c2c(F)cc3c(=O)c(C(=O)O)cn(C4CC4)c3c2Cl)C1 (centres undefined) [CLINAFLOXACIN]
MIC (Salmonella [2]): 1 µg/mL (≈ 2.73 µM)
zone of inhibition at 80 µg/mL (Pseudomonas aeruginosa [4]): 22 to 23 mm
zone of inhibition at 80 µg/mL (Salmonella [5]): 13 to 21 mm
MIC (Escherichia coli [6]): 2 µg/mL (≈ 5.47 µM)
MIC (Staphylococcus aureus [8]): 1 µg/mL (≈ 2.73 µM)
zone of inhibition at 80 µg/mL (Staphylococcus aureus [9]): 22 mm
MIC (Pseudomonas aeruginosa [11]): 0.125 µg/mL (≈ 0.342 µM)
zone of inhibition at 80 µg/mL (Escherichia coli [12]): 7 to 17 mm

O=C(Cn1ccnn1)NC1CCN(c2c(F)cc3c(=O)c(C(=O)O)cn(C4CC4)c3c2Cl)C1 (centres undefined)
MIC (Salmonella [2]): 16 µg/mL (≈ 33.7 µM)
inhibition of growth at 20 µM [3]: 98.5%
zone of inhibition at 80 µg/mL (Pseudomonas aeruginosa [4]): 19 mm
zone of inhibition at 80 µg/mL (Salmonella [5]): 19 mm
MIC (Escherichia coli [6]): > 16 µg/mL
MIC [7]: 2.28 µM (≈ 1.08 µg/mL)
MIC (Staphylococcus aureus [8]): 4 µg/mL (≈ 8.42 µM)
zone of inhibition at 80 µg/mL (Staphylococcus aureus [9]): 17 mm
inhibition at 20 µM [10]: -10.1%
MIC (Pseudomonas aeruginosa [11]): 1 µg/mL (≈ 2.11 µM)
zone of inhibition at 80 µg/mL (Escherichia coli [12]): 16 mm
IC50 [1]: > 1 µM

Cc1cc(C)n(CCC(=O)NC2CCN(c3c(F)cc4c(=O)c(C(=O)O)cn(C5CC5)c4c3Cl)C2)n1 (centres undefined)
IC50 [1]: > 1 µM

O=C(CCn1nccn1)NC1CCN(c2c(F)cc3c(=O)c(C(=O)O)cn(C4CC4)c3c2Cl)C1 (centres undefined)
IC50 [1]: > 1 µM

O=C(Cn1cncn1)NC1CCN(c2c(F)cc3c(=O)c(C(=O)O)cn(C4CC4)c3c2Cl)C1 (centres undefined)
IC50 [1]: > 1 µM

COc1ccc2[nH]c(SCC(=O)NC3CCN(c4c(F)cc5c(=O)c(C(=O)O)cn(C6CC6)c5c4Cl)C3)nc2c1 (centres undefined)
IC50 [1]: > 1 µM

Cn1nnc(SCC(=O)NC2CCN(c3c(F)cc4c(=O)c(C(=O)O)cn(C5CC5)c4c3Cl)C2)n1 (centres undefined)
IC50 [1]: > 1 µM

Cc1cn(CC(=O)NC2CCN(c3c(F)cc4c(=O)c(C(=O)O)cn(C5CC5)c4c3Cl)C2)cn1 (centres undefined)
IC50 [1]: > 1 µM

Nc1nnc(SCC(=O)NC2CCN(c3c(F)cc4c(=O)c(C(=O)O)cn(C5CC5)c4c3Cl)C2)s1 (centres undefined)
MIC (Salmonella [2]): 16 µg/mL (≈ 29.7 µM)
inhibition of growth at 20 µM [3]: 99%
zone of inhibition at 80 µg/mL (Pseudomonas aeruginosa [4]): 15 mm
zone of inhibition at 80 µg/mL (Salmonella [5]): 12 mm
IC50 (HeLa): > 20 µM
MIC (Escherichia coli [6]): > 16 µg/mL
MIC [7]: 0.66 µM (≈ 0.356 µg/mL)
MIC (Staphylococcus aureus [8]): 8 µg/mL (≈ 14.8 µM)
zone of inhibition at 80 µg/mL (Staphylococcus aureus [9]): 12 mm
inhibition at 20 µM [10]: -11.2%
MIC (Pseudomonas aeruginosa [11]): 4 µg/mL (≈ 7.42 µM)
zone of inhibition at 80 µg/mL (Escherichia coli [12]): 12 mm
IC50 [1]: > 1 µM

Cc1cc(C)n(CC(=O)NC2CCN(c3c(F)cc4c(=O)c(C(=O)O)cn(C5CC5)c4c3Cl)C2)n1 (centres undefined)
IC50 [1]: > 1 µM

O=C(Cn1cnc2ccccc21)NC1CCN(c2c(F)cc3c(=O)c(C(=O)O)cn(C4CC4)c3c2Cl)C1 (centres undefined)
IC50 [1]: > 1 µM

Cc1nnnn1CCC(=O)NC1CCN(c2c(F)cc3c(=O)c(C(=O)O)cn(C4CC4)c3c2Cl)C1 (centres undefined)
IC50 [1]: > 1 µM

Nc1n[nH]c(SCC(=O)NC2CCN(c3c(F)cc4c(=O)c(C(=O)O)cn(C5CC5)c4c3Cl)C2)n1 (centres undefined)
MIC (Salmonella [2]): 16 µg/mL (≈ 30.7 µM)
inhibition of growth at 20 µM [3]: 98.2%
zone of inhibition at 80 µg/mL (Pseudomonas aeruginosa [4]): 16 mm
zone of inhibition at 80 µg/mL (Salmonella [5]): 16 mm
IC50 (HeLa): > 20 µM
MIC (Escherichia coli [6]): > 16 µg/mL
MIC [7]: 0.72 µM (≈ 0.376 µg/mL)
MIC (Staphylococcus aureus [8]): 16 µg/mL (≈ 30.7 µM)
zone of inhibition at 80 µg/mL (Staphylococcus aureus [9]): 16 mm
inhibition at 20 µM [10]: -7.2%
MIC (Pseudomonas aeruginosa [11]): 8 µg/mL (≈ 15.3 µM)
zone of inhibition at 80 µg/mL (Escherichia coli [12]): 14 mm
IC50 [1]: > 1 µM
